The text below walks through data of US10258602B2 (Ocera Therapeutics, Inc., priority 2007, dated 2019).

What is called IC50 is the concentration that inhibits the measured activity by half.

Like-named read-outs stand apart in the source and are kept apart here.

The subject of one series is human plasma. Put plainly: Plasma protein binding, human plasma (equilibrium dialysis). Format: in vitro ADME. The source says:
J. Plasma Protein Binding
The pharmacokinetic and pharmacodynamic properties of drugs are largely a function of the reversible binding of drugs to plasma or serum proteins such as albumin and α1-acid glycoprotein. In general, only unbound drug is available for diffusion or transport across cell membranes, and for interaction at the pharmacological target. On the other hand, drugs with low plasma protein binding generally have large volumes of distribution and rapid clearance since only unbound drug is available for glomerular filtration and, in some cases, hepatic clearance. Thus, the extent of plasma protein binding can influence efficacy, distribution and elimination. The ideal range for plasma protein binding is in the range of 87-98% for most drug products.
Protein binding studies were performed using human plasma. Briefly, 96-well microplates were used to incubate various concentrations of the test article for 60 min at 37° C. Bound and unbound fractions are separated by equilibrium dialysis, where the concentration remaining in the unbound fraction is quantified by LC-MS or LC-MS-MS analysis. […].
The table below presents protein binding data for representative compounds of the present invention in both human and rat plasma.
(Equilibrium dialysis compares concentrations on both sides of a semipermeable membrane.)

For another series, the system named is rat plasma. The series can be described thus: Plasma protein binding, rat plasma. Format: in vitro ADME.
In the next series the target is T1, CYP2C8 (Homo sapiens, UniProt P10632).
T1 construct: purchased BD Gentest, Becton-Dickinson (Supersomes); host or cells: insect cells
T1 sequence (P10632 1-490): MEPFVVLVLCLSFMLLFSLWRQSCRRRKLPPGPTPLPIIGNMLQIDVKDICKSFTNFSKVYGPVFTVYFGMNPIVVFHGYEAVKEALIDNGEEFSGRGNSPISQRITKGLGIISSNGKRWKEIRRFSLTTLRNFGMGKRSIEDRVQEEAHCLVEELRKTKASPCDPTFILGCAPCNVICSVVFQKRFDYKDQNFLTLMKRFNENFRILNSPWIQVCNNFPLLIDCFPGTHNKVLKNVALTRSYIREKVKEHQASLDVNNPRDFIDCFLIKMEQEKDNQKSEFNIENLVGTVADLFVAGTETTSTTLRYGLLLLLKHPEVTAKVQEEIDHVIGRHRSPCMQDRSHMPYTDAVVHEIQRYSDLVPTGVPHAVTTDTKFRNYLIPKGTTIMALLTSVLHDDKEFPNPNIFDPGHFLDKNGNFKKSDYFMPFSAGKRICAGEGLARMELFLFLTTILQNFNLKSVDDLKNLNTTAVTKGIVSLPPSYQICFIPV
The series can be described thus: Cytochrome P450 inhibition, CYP2C8. In kind it is in vitro ADME. The following applies: read-out: IC50 2C8. The source says:
(§1) K. Assay for Cytochrome P450 Inhibition
(§2) Cytochrome P450 enzymes are implicated in the phase I metabolism of drugs. The majority of drug-drug interactions are metabolism-based and, moreover, these interactions typically involve inhibition of cytochrome P450s. Six CYP450 enzymes (CYP1A2, CYP2C8, CYP2C9, CYP2C19, CYP2D6 and CYP3A4) appear to be commonly responsible for the metabolism of most drugs and the associated drug-drug interactions. Assays to determine the binding of compounds of the invention to the various metabolically important isoforms of cytochrome P450 metabolizing enzymes are commercially available, for example NoAb BioDiscoveries (Mississaugua, ON, Canada) and Absorption Systems (Exton, Pa., USA). As well, a number of appropriate methods have been described or reviewed in the literature. (White, R. E. Ann. Rev. Pharmacol. Toxicol. 2000, 40, 133-157; Li, A. P. Drug. Disc. Today 2001, 6, 357-366; Turpeinen, M.; Korhonen, L. E. Tolonen, A.; et al. Eur. J. Pharm. Sci, 2006, 29, 130-138.)
(§3) The key aspects of the experimental method were as follows: • 1. […] Assays monitored, via fluorescence detection, the formation of a fluorescent metabolite following incubation of the microsomes with a specific CYP substrate. • 3. Compounds of the present invention were tested in duplicate samples at eight test concentrations using 3-fold serial dilutions (concentration range of 0.0457 to 100 μM). • 4. For each CYP-450 enzyme, a specific inhibitor was tested in duplicate at eight concentrations as a positive control. • 5. The concentration of the inhibitor or test compound that inhibited metabolite formation by 50% (IC50) was calculated by non-linear regression analysis of the % inhibition vs. log concentration (M) curve.

Another series deals with T2, CYP2C19 (Homo sapiens, UniProt P33261).
T2 construct: purchased BD Gentest, Becton-Dickinson (Supersomes); host or cells: insect cells
Put plainly: Cytochrome P450 inhibition, CYP2C19. The following applies: read-out: IC50 2C19. Format: in vitro ADME.
Excerpt: as §1, §2, §3

For another series, the target named is T3, CYP2D6 (Homo sapiens, UniProt P10635).
T3 construct: purchased BD Gentest, Becton-Dickinson (Supersomes); host or cells: insect cells
The series can be described thus: Cytochrome P450 inhibition, CYP2D6. Format: in vitro ADME. The following applies: read-out: IC50 2D6.
Excerpt: as §1, §2, §3

A further series deals with T4, CYP2E1 (Homo sapiens, UniProt P05181).
T4 construct: purchased BD Gentest, Becton-Dickinson (Supersomes); host or cells: insect cells
Put plainly: Cytochrome P450 inhibition, CYP2E1. Format: in vitro ADME. The following applies: read-out: IC50 2E1.
Excerpt: as §1, §2, §3

In a further series the target is T5, CYP3A4 (Homo sapiens, UniProt P08684).
T5 construct: purchased BD Gentest, Becton-Dickinson (Supersomes); host or cells: insect cells
The series can be described thus: Cytochrome P450 inhibition, CYP3A4 (two substrates). Format: in vitro ADME.
Excerpt: as §1, §2, §3

Another series relates to fasted rats. The series can be described thus: Gastric emptying in fasted rat model, standard method E. Format: in vivo. The following applies: for Percent Increase in Gastric Emptying After Oral Administration: average where repeated. Put shortly: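 Overnight-fasted male Wistar rats (200 g, n=5/group) received a 2 mL 2% methylcellulose meal labelled with 0.05% phenol red by gavage, then oral test article (typically 1–30 mg/kg) at t=0. At 15 min, stomach phenol red was measured colorimetrically at 560 nm; ≥30% increase in emptying vs vehicle deemed significant (ANOVA/Dunnett).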

[1] abbreviates: CYP3A4, substrate BFC, read-out: IC50 3A4 (BFC).
Where [2] appears, read: CYP3A4, substrate BQ, read-out: IC50 3A4 (BQ).

T5 sequence (P08684 whole entry): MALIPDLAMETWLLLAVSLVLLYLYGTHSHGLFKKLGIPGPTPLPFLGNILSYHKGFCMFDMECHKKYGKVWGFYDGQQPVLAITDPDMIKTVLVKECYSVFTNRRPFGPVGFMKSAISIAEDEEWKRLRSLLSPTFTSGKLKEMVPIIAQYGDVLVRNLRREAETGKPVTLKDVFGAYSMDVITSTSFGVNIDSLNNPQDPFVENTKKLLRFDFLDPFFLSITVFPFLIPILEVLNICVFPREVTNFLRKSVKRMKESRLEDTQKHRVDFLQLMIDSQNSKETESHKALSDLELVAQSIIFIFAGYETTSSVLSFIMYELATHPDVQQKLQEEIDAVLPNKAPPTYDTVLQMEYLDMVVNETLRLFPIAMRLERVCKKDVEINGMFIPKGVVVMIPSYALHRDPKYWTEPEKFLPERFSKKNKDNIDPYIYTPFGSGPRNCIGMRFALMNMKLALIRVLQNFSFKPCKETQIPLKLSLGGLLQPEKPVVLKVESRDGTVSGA
T2 sequence (P33261 whole entry): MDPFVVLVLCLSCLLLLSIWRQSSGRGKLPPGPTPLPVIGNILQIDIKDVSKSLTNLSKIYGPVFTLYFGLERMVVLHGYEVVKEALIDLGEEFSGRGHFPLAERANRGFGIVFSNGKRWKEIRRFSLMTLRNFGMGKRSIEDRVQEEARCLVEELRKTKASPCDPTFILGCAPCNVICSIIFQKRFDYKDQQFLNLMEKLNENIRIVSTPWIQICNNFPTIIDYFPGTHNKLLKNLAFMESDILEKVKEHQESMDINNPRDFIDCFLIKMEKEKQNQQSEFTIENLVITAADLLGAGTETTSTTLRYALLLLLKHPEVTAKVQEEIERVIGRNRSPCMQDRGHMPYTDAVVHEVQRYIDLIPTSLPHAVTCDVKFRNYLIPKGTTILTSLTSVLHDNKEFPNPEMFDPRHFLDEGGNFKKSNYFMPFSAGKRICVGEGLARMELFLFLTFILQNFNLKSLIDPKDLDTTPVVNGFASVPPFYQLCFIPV
T4 sequence (P05181 whole entry): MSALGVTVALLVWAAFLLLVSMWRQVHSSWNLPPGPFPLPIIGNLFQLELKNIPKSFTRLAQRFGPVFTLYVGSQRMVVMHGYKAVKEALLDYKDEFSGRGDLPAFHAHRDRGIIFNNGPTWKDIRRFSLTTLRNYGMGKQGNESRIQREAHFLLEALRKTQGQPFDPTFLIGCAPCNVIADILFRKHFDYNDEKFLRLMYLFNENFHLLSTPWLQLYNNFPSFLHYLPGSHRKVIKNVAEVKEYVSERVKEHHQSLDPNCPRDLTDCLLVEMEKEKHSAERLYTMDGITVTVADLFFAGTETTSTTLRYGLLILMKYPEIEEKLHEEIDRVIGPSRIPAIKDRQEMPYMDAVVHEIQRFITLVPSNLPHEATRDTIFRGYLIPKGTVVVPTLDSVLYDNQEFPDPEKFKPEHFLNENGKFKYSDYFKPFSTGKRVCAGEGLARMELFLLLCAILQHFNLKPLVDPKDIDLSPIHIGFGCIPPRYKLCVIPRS
T3 sequence (P10635 whole entry): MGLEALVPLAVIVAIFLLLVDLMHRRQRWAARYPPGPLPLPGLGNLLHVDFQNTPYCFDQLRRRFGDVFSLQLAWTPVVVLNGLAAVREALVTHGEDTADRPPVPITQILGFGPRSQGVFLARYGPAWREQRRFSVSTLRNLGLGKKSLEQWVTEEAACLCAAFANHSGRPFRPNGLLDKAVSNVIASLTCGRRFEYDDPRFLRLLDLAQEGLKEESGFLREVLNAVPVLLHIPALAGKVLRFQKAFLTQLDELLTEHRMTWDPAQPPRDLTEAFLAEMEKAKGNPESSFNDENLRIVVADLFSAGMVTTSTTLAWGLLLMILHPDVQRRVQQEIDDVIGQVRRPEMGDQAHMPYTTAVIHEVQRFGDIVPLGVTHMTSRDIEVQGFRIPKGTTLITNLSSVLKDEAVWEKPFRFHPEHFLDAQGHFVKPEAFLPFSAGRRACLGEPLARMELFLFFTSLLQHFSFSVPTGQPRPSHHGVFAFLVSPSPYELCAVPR

For the compound `CC(C)CC1NC(=O)C(C)N(C)C(=O)C(C2CC2)NCC(C)OC2CCCCC2CCCNC1=O` (mixture of isomers) [Compound 825], the “Human Plasma Protein Binding (%)” value in the series with human plasma (test concentration 1 μg/mL) is listed as 83%; with human plasma (test concentration 5 μg/mL) it was 70%. Further, the entries for the “Rat Plasma Protein Binding (%)” value in the series on rat plasma (test concentration 1 μg/mL) and in the series with rat plasma (test concentration 5 μg/mL) were 96.6% and 73%, respectively. For the same compound, the IC50 was greater than 100 µM at CYP2C8; greater than 100 µM at CYP2C19; greater than 100 µM on CYP2D6; greater than 100 µM on CYP2E1; 93.4 µM on CYP3A4 (setting [1]); 6.7 µM at CYP3A4 (setting [2]).
Consider `CC1CNC(C2CC2)C(=O)N(C)C(C)C(=O)NC(Cc2ccc(O)cc2)C(=O)NCCCC2CCCCC2O1` (mixture of isomers) [Compound 826], for which the “Percent Increase in Gastric Emptying After Oral Administration” value (“Percent Increase” for short) in the series on fasted rats (dose 1 mg/kg) turned out to be 19%; in the series with fasted rats (dose 3 mg/kg), 12%; with fasted rats (dose 10 mg/kg), 30%. The “Human Plasma Protein Binding (%)” value with human plasma (test concentration 3 μg/mL) is listed as 94.3%. In addition, the “Rat Plasma Protein Binding (%)” value in the series on rat plasma (test concentration 3 μg/mL) is 97.2%. Moreover, the IC50 was greater than 100 µM at CYP2C8; greater than 100 µM at CYP2C19; greater than 100 µM at CYP2D6; greater than 100 µM at CYP2E1; 47.5 µM at CYP3A4 (setting [1]); 4.5 µM on CYP3A4 (setting [2]).
As to `CC(C)CC1NC(=O)C(C)N(C)C(=O)C(C2CCCCC2)NCC(C)OC2CCCCC2CCCNC1=O` (mixture of isomers) [Compound 828], the “Percent Increase” value in the series on fasted rats (dose 3 mg/kg) stood at 24%. For the same compound, the “Human Plasma Protein Binding (%)” value in the series on human plasma (test concentration 3 μg/mL) was found to be 76.8%. Besides, the IC50 at CYP2C8 is greater than 100 µM; at CYP2C19, greater than 100 µM; at CYP2D6, greater than 100 µM; on CYP2E1, greater than 100 µM; on CYP3A4 (setting [1]) it was 18.7 µM; at CYP3A4 (setting [2]) it was 8.9 µM.
For `C[C@@H]1C(=O)N[C@H](Cc2ccc(O)cc2)C(=O)NCCCc2cccc3c2O[C@H](CC3)CN[C@@H](C2CC2)C(=O)N1C` [Compound 803], in the series on human plasma (test concentration 1 μg/mL), the “Human Plasma Protein Binding (%)” value worked out at 97.8%. The “Rat Plasma Protein Binding (%)” value in the series with rat plasma (test concentration 1 μg/mL) came to 99.1%. The IC50 at CYP2C8 is 54.6 µM; at CYP2C19 it was greater than 100 µM; at CYP2D6 it was greater than 100 µM; at CYP2E1, greater than 100 µM; on CYP3A4 (setting [2]), 11.5 µM.
For `CC(C)C[C@H]1NC(=O)[C@@H](C)N(C)C(=O)[C@H](C2CC2)NC[C@@H](C)Oc2ccccc2CC[C@H](C)NC1=O` [Compound 807], the “Percent Increase” value with fasted rats (dose 1 mg/kg) is listed as 17%; in the series with fasted rats (dose 3 mg/kg), 31%; in the series with fasted rats (dose 10 mg/kg), 41%. The “gastric emptying rates remained increased” value in the series with fasted rats (oral, up to 24 h post-dose) is 18-23%. Besides, the half-maximal inhibitory concentration (IC50) at CYP2C8 was greater than 100 µM; on CYP2C19, greater than 100 µM; on CYP2D6, greater than 100 µM; on CYP2E1, greater than 100 µM; on CYP3A4 (setting [1]) it was 23.3 µM; at CYP3A4 (setting [2]) it was 6.1 µM.
With `C[C@@H]1C(=O)N[C@H](Cc2ccc(O)cc2)C(=O)NCCCc2ccc(F)cc2OCCN[C@@H](C2CC2)C(=O)N1C` [Compound 809], in the series on fasted rats (dose 3 mg/kg), the “Percent Increase” value came to 5%. Moreover, in the series on human plasma (test concentration 3 μg/mL), the “Human Plasma Protein Binding (%)” value turned out to be 88.4%. For the same compound, in the series on rat plasma (test concentration 3 μg/mL), the “Rat Plasma Protein Binding (%)” value worked out at 92.8%. The concentration for half-maximal inhibition (IC50) is greater than 100 µM at CYP2C8; greater than 100 µM at CYP2C19; greater than 100 µM at CYP2D6; greater than 100 µM at CYP2E1; 6.61 µM on CYP3A4 (setting [1]); 1.53 µM on CYP3A4 (setting [2]).
In the case of `CC(C)C[C@H]1NC(=O)[C@@H](C)N(C)C(=O)[C@H](C2CC2)NCCOc2cc(F)ccc2CCCNC1=O` [Compound 810], the “Human Plasma Protein Binding (%)” value in the series on human plasma (test concentration 3 μg/mL) is 78.9%. The half-maximal inhibitory concentration (IC50) at CYP2C8 was greater than 100 µM; on CYP2C19, greater than 100 µM; on CYP2D6, greater than 100 µM; on CYP2E1, greater than 100 µM; on CYP3A4 (setting [1]), 7.42 µM; at CYP3A4 (setting [2]), 1.08 µM.
Consider `CC1NC(C2CC2)C(=O)N(C)C(C)C(=O)NC(Cc2ccc(O)cc2)C(=O)NCCCc2ccccc2OC1C` (stereo not shown) [Compound 820], for which the “Percent Increase” value with fasted rats (dose 1 mg/kg) was found to be 6%; in the series with fasted rats (dose 3 mg/kg), 20%; in the series on fasted rats (dose 10 mg/kg), 22%. In the series on human plasma (test concentration 3 μg/mL), the “Human Plasma Protein Binding (%)” value was determined as 99.0%. The “Rat Plasma Protein Binding (%)” value in the series on rat plasma (test concentration 3 μg/mL) is 98.8%. Moreover, the 50% inhibitory concentration (IC50) at CYP2C8 is greater than 100 µM; at CYP2C19, greater than 100 µM; at CYP2D6 it was greater than 100 µM; on CYP2E1, greater than 100 µM; on CYP3A4 (setting [1]), 47.4 µM; on CYP3A4 (setting [2]) it was 13.8 µM.
As for `CC(C)C[C@H]1NC(=O)[C@@H](C)N(C)C(=O)[C@H](C2CC2)NCCOc2cc(F)ccc2CC[C@H](C)NC1=O` [Compound 822], the “Percent Increase” value with fasted rats (dose 3 mg/kg) was determined as 6%. The “Human Plasma Protein Binding (%)” value with human plasma (test concentration 3 μg/mL) is reported as 93.0%. The “Rat Plasma Protein Binding (%)” value in the series with rat plasma (test concentration 3 μg/mL) is given as 99.1%. Also, the concentration for half-maximal inhibition (IC50) was greater than 100 µM on CYP2C8; greater than 100 µM at CYP2C19; greater than 100 µM on CYP2D6; greater than 100 µM on CYP2E1; 14.2 µM on CYP3A4 (setting [1]); 4.15 µM at CYP3A4 (setting [2]).
